For 41 compounds, Ki and melting point results are on record in patent publication US8513232B2, “Substituted spirocyclic piperidine derivatives as histamine-3 (H3) receptor ligands” (Cephalon, Inc., priority 2008, dated 2013).

SMILES strings stand for the structures.

Data set [1] has as its target T1, rat histamine H3 receptor (Rattus norvegicus, UniProt Q9QYN8).
T1 construct: encoding the entire 445-amino-acid rat histamine H3 receptor; expressed in transfected cells; membrane preparation
Kind of data set: Rat H3 radioligand binding ([3H]-N-alpha-methylhistamine, SPA). Particulars: rat H3 binding, Table D; read-out: Rat H3 Ki. The gist of the method:
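SPA-bead binding assay using [3H]-N-alpha-methylhistamine (approximately 1 nM final) with test compounds from 0.01 nM to 30 μM. Rat H3 receptor membranes came from stably transfected CHO-A3 cells; incubation ran 4 h at room temperature, in the dark, in Tris pH 7.4 buffer with MgCl2 and BSA. Clobenpropit (10 μM) gave non-specific binding.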

The target in the next data set is T2, human H3 receptor (Homo sapiens, UniProt Q9Y5N1).
T2 construct: expressed in transfected cells
Kind of data set: Human H3 radioligand binding ([3H]-N-alpha-methylhistamine, SPA). As to conditions: human H3 binding, Table D; read-out: Human H3 Ki. The gist of the method:
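Compounds (0.01 nM-30 μM) competed with approximately 1 nM [3H]-N-alpha-methylhistamine for human H3 receptor in membranes of stably transfected CHO cells, 10 μg protein per well, in Tris-HCl pH 7.4/MgCl2/BSA buffer for 4 h at room temperature. Bound radioligand measured by scintillation proximity; 10 μM clobenpropit gave non-specific binding.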

T1 sequence (Q9QYN8 whole entry): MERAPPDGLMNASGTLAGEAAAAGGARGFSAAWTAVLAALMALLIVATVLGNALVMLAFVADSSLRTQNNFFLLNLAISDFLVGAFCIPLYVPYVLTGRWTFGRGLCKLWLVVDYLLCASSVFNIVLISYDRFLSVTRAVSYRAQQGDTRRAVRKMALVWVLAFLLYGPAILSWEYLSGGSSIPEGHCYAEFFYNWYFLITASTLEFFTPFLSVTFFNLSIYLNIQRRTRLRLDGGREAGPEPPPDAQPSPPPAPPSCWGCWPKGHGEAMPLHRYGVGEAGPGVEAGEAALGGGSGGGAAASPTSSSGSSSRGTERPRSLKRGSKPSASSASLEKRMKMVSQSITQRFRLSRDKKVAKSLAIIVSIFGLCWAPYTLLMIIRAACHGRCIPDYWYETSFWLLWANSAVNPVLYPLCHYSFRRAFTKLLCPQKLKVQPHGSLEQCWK
T2 sequence (Q9Y5N1 whole entry): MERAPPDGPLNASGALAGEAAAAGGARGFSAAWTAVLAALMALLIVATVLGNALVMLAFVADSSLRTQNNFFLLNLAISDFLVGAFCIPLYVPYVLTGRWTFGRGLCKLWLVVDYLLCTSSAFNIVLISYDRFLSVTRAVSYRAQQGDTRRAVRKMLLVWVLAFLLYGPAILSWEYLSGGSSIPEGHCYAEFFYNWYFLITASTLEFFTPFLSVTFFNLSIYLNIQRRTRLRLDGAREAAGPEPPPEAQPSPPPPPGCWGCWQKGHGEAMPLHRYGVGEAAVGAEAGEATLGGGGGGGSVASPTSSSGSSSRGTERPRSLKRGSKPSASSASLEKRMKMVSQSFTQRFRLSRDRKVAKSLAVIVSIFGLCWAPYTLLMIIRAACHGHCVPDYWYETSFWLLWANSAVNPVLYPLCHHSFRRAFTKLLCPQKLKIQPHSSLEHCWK

For `CNC(=O)c1cc(-c2ccc3c(c2)CCC2(CCN(C4CCC4)CC2)O3)ccc1Cl` [Example 582], the melting point (usually the temperature, or range, at which the solid turns liquid) lay in the range of 89 to 91 °C. For the same compound, in data set [1], the Ki (commonly the equilibrium dissociation constant of an inhibitor or competing ligand from its target) was below 200 nM. Also, the Ki at human H3 receptor is below 200 nM.
The compound `O=S(=O)(c1ccccc1)C1CCN(c2ccc3c(c2)COC2(CCN(C4CCC4)CC2)O3)CC1` [Example 583] had a melting point of 78.4 to 80.2 °C. Further, the Ki in data set [1] was below 200 nM. The inhibition constant Ki at human H3 receptor was below 200 nM.
Compound `CNC(=O)c1cc(-c2ccc3c(c2)COC2(CCN(C4CCC4)CC2)O3)ccc1Cl` [Example 584] registered a melting point of 198 to 200 °C. In addition, the inhibitory constant (Ki) in data set [1] is below 200 nM. Moreover, the Ki at human H3 receptor is below 200 nM.
In turn, `O=C(NC[C@@H]1CCCO1)c1ccc(-c2ccc3c(c2)COC2(CCN(C4CCC4)CC2)O3)cc1Cl` [Example 585] registered a melting point of 159 to 161 °C. Also, in data set [1], the Ki is below 200 nM. The inhibitory constant (Ki) at human H3 receptor is below 200 nM.
`CN(C)C(=O)CC1CCN(c2ccc3c(c2)COC2(CCN(C4CCC4)CC2)O3)CC1` [Example 586] displayed a melting point of 68.5 to 70.2 °C. The Ki in data set [1] was below 200 nM. At human H3 receptor, the Ki was below 200 nM.
Consider `CC(C)NC(=O)c1ccc(-c2ccc3c(c2)CCC2(CCN(C4CCC4)CC2)O3)cc1Cl` [Example 587], for which the melting point fell in the range of 155 to 156 °C. Also, the Ki in data set [1] is below 200 nM. The Ki at human H3 receptor is below 200 nM.
The compound `COCCNC(=O)CC1CCN(c2ccc3c(c2)COC2(CCN(C4CCC4)CC2)O3)CC1` [Example 588] registered a melting point of 150.1 to 152.2 °C. Besides, the Ki in data set [1] was below 200 nM. In addition, the Ki on human H3 receptor was below 200 nM.
Compound `O=C(NC[C@@H]1CCCO1)c1ccc(-c2ccc3c(c2)COC2(CCN(C4CCC4)CC2)O3)cc1F` [Example 589] displayed a melting point of 128 to 130 °C. Also, the inhibition constant (Ki) in data set [1] was below 200 nM. Besides, the Ki at human H3 receptor was below 200 nM.
Compound `CNC(=O)c1ccc(-c2ccc3c(c2)COC2(CCN(C4CCC4)CC2)O3)nc1` [Example 590] returned a melting point of 175 to 177 °C. The inhibition constant Ki in data set [1] is below 200 nM. For the same compound, the Ki at human H3 receptor is below 200 nM.
`COC[C@H](C)NC(=O)c1ccc(-c2ccc3c(c2)CCC2(CCN(C4CCC4)CC2)O3)cc1Cl` [Example 591] yielded a melting point of 120 to 122 °C. In data set [1], the Ki was below 200 nM. For the same compound, the Ki at human H3 receptor was below 200 nM.
On to `c1cc2c(cc1OCC1CCNCC1)CCC1(CCN(C3CCC3)CC1)O2` [Example 592], for which the melting point lay in the range of 292 to 294 °C. The Ki in data set [1] was below 200 nM. In addition, the Ki at human H3 receptor is below 200 nM.
The compound `CN(C)C(=O)/C=C/c1ccc2c(c1)CCC1(CCN(C3CCC3)CC1)O2` [Example 594] yielded a melting point of 187 to 189 °C. Further, the Ki in data set [1] is 200 to 1000 nM. The Ki on human H3 receptor was below 200 nM.
Compound `CNC(=O)c1ccc(-c2ccc3c(c2)CCC2(CCN(C4CCC4)CC2)O3)nc1` [Example 595] gave a melting point of 192 to 194 °C. For the same compound, in data set [1], the Ki was below 200 nM. The Ki at human H3 receptor was below 200 nM.
`CC(C)NC(=O)c1ccc(-c2ccc3c(c2)COC2(CCN(C4CCC4)CC2)O3)cc1Cl` [Example 596] yielded a melting point of 186 to 187.5 °C. In addition, the Ki in data set [1] is below 200 nM. Moreover, the Ki at human H3 receptor was below 200 nM.
In turn, `COC[C@H](C)NC(=O)c1ccc(-c2ccc3c(c2)COC2(CCN(C4CCC4)CC2)O3)cc1Cl` [Example 598] gave a melting point of 150 to 152 °C. In addition, in data set [1], the Ki is below 200 nM. For the same compound, the Ki on human H3 receptor is below 200 nM.
Consider `O=C(NC[C@@H]1CCCO1)c1c(F)cc(-c2ccc3c(c2)COC2(CCN(C4CCC4)CC2)O3)cc1F` [Example 599], for which the melting point lay in the range of 142 to 145 °C. In addition, the inhibition constant Ki in data set [1] is below 200 nM. In addition, the Ki on human H3 receptor is below 200 nM.
Turning to `O=C(N[C@H]1CCOC1)c1ccc(-c2ccc3c(c2)COC2(CCN(C4CCC4)CC2)O3)cc1` [Example 600], the melting point was in the range of 205 to 207 °C. Moreover, the Ki in data set [1] is below 200 nM. In addition, the Ki on human H3 receptor was below 200 nM.
Take `OCC1CCN(c2ccc3c(c2)COC2(CCN(C4CCC4)CC2)O3)CC1` [Example 601]: the melting point was 88.9 to 91.4 °C. Moreover, the Ki in data set [1] was below 200 nM. In addition, the Ki on human H3 receptor was below 200 nM.
As to `CN(C)C(=O)c1cccc(COc2ccc3c(c2)CCC2(CCN(C4CCC4)CC2)O3)c1` [Example 602], the melting point lay within 183 to 185 °C. The Ki in data set [1] is below 200 nM. The inhibitory constant (Ki) on human H3 receptor is below 200 nM.
The compound `CN(C)C(=O)CCc1ccc2c(c1)CCC1(CCN(C3CCC3)CC1)O2` [Example 603] had a melting point of 180 to 182 °C. Also, in data set [1], the inhibitory constant (Ki) is below 200 nM. Moreover, at human H3 receptor, the Ki is below 200 nM.
In the case of `NC(=O)c1ccc(-c2ccc3c(c2)COC2(CCN(C4CCC4)CC2)O3)cc1Cl` [Example 604], the melting point is 164 to 166 °C. Further, in data set [1], the Ki was below 200 nM. For the same compound, the Ki at human H3 receptor was below 200 nM.
The compound `O=C(N[C@@H]1CCOC1)c1ccc(-c2ccc3c(c2)COC2(CCN(C4CCC4)CC2)O3)cc1Cl` [Example 605] had a melting point of 189 to 191 °C. Moreover, the Ki in data set [1] is below 200 nM. For the same compound, the Ki on human H3 receptor was below 200 nM.
Consider `O=C(NC1CCOCC1)c1ccc(-c2ccc3c(c2)COC2(CCN(C4CCC4)CC2)O3)cc1Cl` [Example 606], for which the melting point is 209 to 211 °C. Further, the Ki in data set [1] was below 200 nM. The Ki on human H3 receptor was below 200 nM.
`CNC(=O)c1cc(-c2ccc3c(c2)COC2(CCN(C4CCC4)CC2)O3)cs1` [Example 607] had a melting point of 186 to 188 °C. For the same compound, the Ki in data set [1] is below 200 nM. Besides, the Ki on human H3 receptor was below 200 nM.
In turn, `CN(C)C(=O)c1ccc(-c2ccc3c(c2)COC2(CCN(C4CCC4)CC2)O3)cc1Cl` [Example 608] had a melting point of 80 to 82 °C. Also, in data set [1], the Ki is below 200 nM. Further, at human H3 receptor, the Ki is below 200 nM.
With `Cc1cc(-c2ccc3c(c2)COC2(CCN(C4CCC4)CC2)O3)cnc1O` [Example 609], the melting point was 95.2 to 97 °C. Also, in data set [1], the Ki is below 200 nM. The Ki at human H3 receptor is below 200 nM.
The compound `COc1ncc(-c2ccc3c(c2)COC2(CCN(C4CCC4)CC2)O3)cc1C` [Example 610] displayed a melting point of 142 to 145 °C. Moreover, the Ki in data set [1] is below 200 nM. Besides, at human H3 receptor, the Ki is below 200 nM.
On to `O=C(N[C@H]1CCOC1)c1ccc(-c2ccc3c(c2)COC2(CCN(C4CCC4)CC2)O3)cc1Cl` [Example 611], for which the melting point lay in the range of 185 to 187 °C. The Ki in data set [1] was below 200 nM. Further, the Ki on human H3 receptor was below 200 nM.
The compound `CN(C)C(=O)C1CCCN(c2ccc3c(c2)COC2(CCN(C4CCC4)CC2)O3)C1` (stereo not drawn) [Example 612] yielded a melting point of 51.2 to 54.2 °C. The Ki in data set [1] was below 200 nM. Also, the Ki at human H3 receptor is below 200 nM.
For the compound `COCCNC(=O)C1CCCN(c2ccc3c(c2)COC2(CCN(C4CCC4)CC2)O3)C1` (stereo not drawn) [Example 613], the melting point was in the range of 55.4 to 57.3 °C. In data set [1], the inhibition constant Ki is below 200 nM. Also, the Ki on human H3 receptor was below 200 nM.
Turning to `O=C(O)C1CCCN(c2ccc3c(c2)COC2(CCN(C4CCC4)CC2)O3)C1` (stereo not drawn) [Example 614], the melting point is 84 to 86.4 °C. For the same compound, the inhibitory constant (Ki) in data set [1] was 200 to 1000 nM. Further, the Ki at human H3 receptor lay in the range of 200 to 1000 nM.
As to `Cc1nnc(COc2ccc3c(c2)CCC2(CCN(C4CCC4)CC2)O3)o1` [Example 615], the melting point fell in the range of 97 to 98 °C. Also, the Ki in data set [1] was below 200 nM. For the same compound, the Ki on human H3 receptor is below 200 nM.
`Cc1noc(COc2ccc3c(c2)CCC2(CCN(C4CCC4)CC2)O3)n1` [Example 616] came in with a melting point of 95 to 96 °C. Also, the Ki in data set [1] is below 200 nM. For the same compound, the Ki at human H3 receptor was below 200 nM.
In turn, `CS(=O)(=O)c1ccc(COc2ccc3c(c2)CCC2(CCN(C4CCC4)CC2)O3)cc1` [Example 617] registered a melting point of 142 to 146 °C. Moreover, the Ki in data set [1] is below 200 nM. For the same compound, the Ki on human H3 receptor is below 200 nM.
Turning to `COC(=O)/C=C/c1ccc2c(c1)COC1(CCN(C3CCC3)CC1)O2` [Example 618], the melting point lay in the range of 131 to 133 °C. For the same compound, the Ki in data set [1] was below 200 nM. For the same compound, the Ki on human H3 receptor is below 200 nM.
In turn, `CN(C)C(=O)c1cnc(COc2ccc3c(c2)CCC2(CCN(C4CCC4)CC2)O3)cn1` [Example 619] had a melting point of 120 to 123 °C. Moreover, the Ki in data set [1] was below 200 nM. In addition, the Ki on human H3 receptor was below 200 nM.
Compound `CNS(=O)(=O)c1ccc(-c2ccc3c(c2)COC2(CCN(C4CCC4)CC2)O3)cc1Cl` [Example 620] displayed a melting point of 127 to 129 °C. Besides, the Ki in data set [1] is below 200 nM. Besides, on human H3 receptor, the Ki was below 200 nM.
`CN(C)S(=O)(=O)c1ccc(-c2ccc3c(c2)COC2(CCN(C4CCC4)CC2)O3)cc1Cl` [Example 621] had a melting point of 97 to 99 °C. Also, the Ki in data set [1] was below 200 nM. Also, at human H3 receptor, the Ki was below 200 nM.
Regarding `CS(=O)(=O)c1ccc(-c2ccc3c(c2)COC2(CCN(C4CCC4)CC2)O3)cc1Cl` [Example 622], the melting point fell in the range of 198 to 201 °C. The Ki in data set [1] was below 200 nM. For the same compound, the Ki at human H3 receptor is below 200 nM.
`CN(C)C(=O)c1cc(COc2ccc3c(c2)CCC2(CCN(C4CCC4)CC2)O3)ccn1` [Example 623] returned a melting point of 165 to 167 °C. The Ki in data set [1] is below 200 nM. Moreover, at human H3 receptor, the inhibition constant (Ki) was below 200 nM.
The compound `COc1cc(-c2ccc3c(c2)COC2(CCN(C4CCC4)CC2)O3)ccc1C(=O)O` [Example 624] showed a melting point of 173 to 175 °C. For the same compound, in data set [1], the Ki was 200 to 1000 nM. Besides, the Ki on human H3 receptor is below 200 nM.
